{
  "source": "the NIST ThermoML archive (doi:10.1016/j.jct.2008.05.012)",
  "note": "± gives the expanded uncertainty stated by the source.",
  "data": [
    {"settings": "Crystal; Heating/Cooling curves", "units": {"Normal melting temperature": "°C"}, "values": [
      {"smiles": "CCOC(=O)OC", "note": "[ethyl methyl carbonate]", "Normal melting temperature": "-55.01 ± 0.41"},
      {"smiles": "C[S+](C)[O-]", "note": "[dimethyl sulfoxide]", "Normal melting temperature": "17.80 ± 2"},
      {"smiles": "CCOC(=O)CC", "note": "[ethyl propanoate]", "Normal melting temperature": "-73.44 ± 0.09"},
      {"smiles": "O=C1CCCO1", "note": "[γ-butyrolactone]", "Normal melting temperature": "-44.71 ± 0.21"},
      {"smiles": "CCC1COC(=O)O1", "note": "(stereo unspecified) [1,2-butylene carbonate]", "Normal melting temperature": "-52.81 ± 1.2"},
      {"smiles": "CCn1cc[n+](C)c1.O=S(=O)([O-])C(F)(F)F", "note": "[1-ethyl-3-methylimidazolium trifluoromethanesulfonate]", "Normal melting temperature": "-10.92 ± 0.6"},
      {"smiles": "C1COCCO1", "note": "[1,4-dioxane]", "Normal melting temperature": "11.33 ± 0.41"},
      {"smiles": "COCCC#N", "note": "[3-methoxypropanenitrile]", "Normal melting temperature": "-63.62 ± 0.53"},
      {"smiles": "COC(=O)OC", "note": "[dimethyl carbonate]", "Normal melting temperature": "3.91 ± 0.6"},
      {"smiles": "CCCCCCCC[N+](C)(CCCCCCCC)CCCCCCCC.O=C([O-])C(F)(F)F", "note": "[methyltrioctylammonium trifluoroacetate]", "Normal melting temperature": "12.47 ± 0.21"},
      {"smiles": "O=C1OCCO1", "note": "[ethylene carbonate]", "Normal melting temperature": "35.38 ± 0.21"},
      {"smiles": "[2H]C([2H])([2H])S(=O)C([2H])([2H])[2H]", "note": "[(methyl sulfoxide)-d6]", "Normal melting temperature": "20.2 ± 0.21"},
      {"smiles": "CCOC(=O)OCC", "note": "[diethyl carbonate]", "Normal melting temperature": "-77.29 ± 0.6"},
      {"smiles": "COCCOC", "note": "[1,2-dimethoxyethane]", "Normal melting temperature": "-69.74 ± 0.21"},
      {"smiles": "C[N+](=O)[O-]", "note": "[nitromethane]", "Normal melting temperature": "-29.79 ± 0.41"},
      {"smiles": "CC#N", "note": "[acetonitrile]", "Normal melting temperature": "-44.08 ± 0.41"}
    ]}
  ]
}
